Measured values taken from US12129237B2, “Substituted diaminocarboxamide and diaminocarbonitrile pyrimidines, compositions thereof, and methods of treatment therewith” (SIGNAL PHARMACEUTICALS, LLC, priority 2011, dated 2024).

target: T1, JNK1 (Homo sapiens, UniProt P45983); test: JNK1 biochemical assays (one or more of: time resolved fluorescence, Z'-LYTE Cascade, radioactive); conditions: Table 2; JNK1 IC50 activity level; read-out: Act. Level
T1 construct: purchased Carna Biosciences
T1 sequence (P45983 whole entry): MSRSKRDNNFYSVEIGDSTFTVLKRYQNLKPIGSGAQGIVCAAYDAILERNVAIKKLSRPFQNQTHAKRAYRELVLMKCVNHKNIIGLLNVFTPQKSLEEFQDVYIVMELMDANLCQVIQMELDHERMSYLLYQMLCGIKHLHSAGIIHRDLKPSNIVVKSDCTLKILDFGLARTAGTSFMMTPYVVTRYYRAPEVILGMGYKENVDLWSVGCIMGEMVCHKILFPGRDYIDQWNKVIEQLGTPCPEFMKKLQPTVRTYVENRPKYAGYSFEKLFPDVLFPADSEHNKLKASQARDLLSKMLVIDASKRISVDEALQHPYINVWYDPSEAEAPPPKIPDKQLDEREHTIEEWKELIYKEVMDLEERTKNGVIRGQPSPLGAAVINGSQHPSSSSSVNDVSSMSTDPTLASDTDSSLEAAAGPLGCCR
Procedure: JNK1 Assay. A 384-well time resolved fluorescence assay was used to monitor JNK1 activity. The JNK1 assay was run in the following assay buffer: 50 mM HEPES, 10 mM MgCl2, 1 mM EGTA, 2 mM DTT, and 0.01% Tween 20. To initiate the reaction 100 nM of ULight™-labeled 4EBP1 peptide (Perkin-Elmer) and 5 μM of ATP were mixed with 500 pM of JNK1 (Carna Biosciences), for a total assay volume of 20 μL in each well. The assay was incubated at room temperature for 1 h and terminated using a mixture of 30 mM EDTA and 4 nM Eu-anti-4EBP1, by adding 20 μL of stop solution to each well. Plates were read on a Perkin-Elmer Envision Reader.
JNK1 Assay. The JNK1 Z′-LYTE® Cascade kinase assay was run in the following buffer: 50 mM HEPES at pH 7.5, 0.01% BRIJ-35, 10 mM MgCl2, 1 mM EGTA, and 1 mM DTT. […] The assay was incubated at room temperature for 1 h. […] The data was then read on a fluorescence plate reader and analyzed.
JNK1 assay. The radioactive JNK kinase assay was carried out in a 96-well plate format at a final volume of 100 μL. […] JNK1 was diluted in the following dilution buffer (20 mM HEPES pH 7.6, 0.1 mM EDTA, 2.5 mM MgCl2, 0.004% (w/v) Triton X100, 2 μg/ml Leupeptin, 20 mM B-glycerol phosphate, 0.1 mM Na3VO4 dithiothreitol) and then pre-mixed with cJun diluted in the substrate solution buffer (20 mM HEPES pH 7.6, 50 mM NaCl, 0.1 mM EDTA, 2.5 mM MgCl2, 0.05% (w/v) Triton X100). […] The enzyme, substrate and inhibitor mixture was allowed to equilibrate at room temperature for 15 minutes. The reaction was started by the addition of 10 μL of 10×ATP in kinase buffer (130 mM MgCl2, 6 mM dithiothreitol, 150 mM para-nitrophenyl phosphate, 100 μCi/ml γ-[^33P]-ATP). Reactions were allowed to proceed for 60 minutes before precipitation of protein via trichloroacetic acid (7.2% TCA final). […] The precipitate was washed with Phosphate Buffered Saline and the amount of phosphate incorporated into cJun was quantified by scintillation counting using a Packard Topcount-NXT. All assays were conducted under conditions where phosphate incorporation was linear with respect to time and enzyme concentration.

Structure (SMILES) | IC50 [µM]
NC(=O)c1cnc(N[C@H]2CCc3ncccc3C2)nc1N[C@@H]1CCC[C@H](O)C1 [Example B-77, 4-((1R,3S)-3-hydroxycyclohexylamino)-2-((S)-5,6,7,8-tetrahydroquinolin-6-ylamino)pyrimidine-5-carboxamid] | < 0.2
CCC(C)CNc1ncc(C(N)=O)c(Nc2ccccc2)n1 (stereo not drawn) [Example B-59, 2-(2-methylbutylamino)-4-(phenylamino)pyrimidine-5-carboxamide] | < 0.2
NC(=O)c1cnc(NCc2ccc(F)c(F)c2)nc1Nc1ccccc1 [Example B-70, 2-(3,4-difluorobenzylamino)-4-(phenylamino)pyrimidine-5-carboxamide] | 0.2 to 0.8
CCOc1cccc(Nc2ncc(C(N)=O)c(Nc3ccccc3)n2)c1 [Example B-26, 2-(3-ethoxyphenylamino)-4-(phenylamino)pyrimidine-5-carboxamide] | < 0.2
NC(=O)c1cnc(N[C@H]2CC[C@H](N)CC2)nc1Nc1ccccc1 [Example B-7, 2-((1r,4r)-4-aminocyclohexylamino)-4-(phenylamino)pyrimidine-5-carboxamide] | < 0.2
CN1CCCC1CCNc1ncc(C(N)=O)c(Nc2ccccc2)n1 (stereo not drawn) [Example B-62, 2-(2-(1-methylpyrrolidin-2-yl)ethylamino)-4-(phenylamino)pyrimidine-5-carboxamide] | 1 to 10
NC(=O)c1cnc(NC2CCOCC2)nc1Nc1ccccc1 [Example B-11, 4-(phenylamino)-2-(tetrahydro-2H-pyran-4-ylamino)pyrimidine-5-carboxamide] | < 0.2
NC(=O)c1cnc(N[C@@H]2CCOc3ccccc32)nc1N[C@@H]1CCC[C@H](O)C1 [Example B-79, 2-((R)-chroman-4-ylamino)-4-((1R,3S)-3-hydroxycyclohexylamino)pyrimidine-5-carboxamide] | < 0.2
NC(=O)c1cnc(NCc2cc(F)cc(F)c2)nc1Nc1ccccc1 [Example B-52, 2-(3,5-difluorobenzylamino)-4-(phenylamino)pyrimidine-5-carboxamide] | 0.8 to 1
CCN(CC)c1ccc(Nc2ncc(C(N)=O)c(Nc3ccccc3)n2)cc1 [Example B-13, 2-(4-(diethylamino)phenylamino)-4-(phenylamino)pyrimidine-5-carboxamide] | < 0.2
CC(C)Nc1nc(N[C@H]2CCc3ncccc3C2)ncc1C(N)=O [Example B-80, (S)-4-(isopropylamino)-2-(5,6,7,8-tetrahydroquinolin-6-ylamino)pyrimidine-5-carboxamide] | < 0.2
NC(=O)c1cnc(N[C@@H]2CCc3ncccc3C2)nc1N[C@@H]1CCC[C@H](O)C1 [Example B-76, 4-((1R,3S)-3-hydroxycyclohexylamino)-2-((R)-5,6,7,8-tetrahydroquinolin-6-ylamino)pyrimidine-5-carboxamid] | < 0.2

same assay, conditions: Table 3; JNK1 IC50 activity level; read-out: Act. Level

Structure (SMILES) | IC50 [µM]
CO[C@H]1CC[C@H](Nc2ncc(C#N)c(N[C@H]3CCCC[C@](C)(O)C3)n2)CC1 [Example C-51, 4-((1S,3S)-3-hydroxy-3-methylcycloheptylamino)-2-((1r,4S)-4-methoxycyclohexylamino) pyrimidine-5-carbonitrile] | 1 to 10
CO[C@H]1CC[C@H](Nc2ncc(C#N)c(N[C@@H]3CCC[C@H](O)C3)n2)CC1 [Example C-4, 4-((1R,3S)-3-hydroxycyclohexylamino)-2-((1r,4R)-4-methoxycyclohexylamino) pyrimidine-5-carbonitrile] | < 0.2
N#Cc1cnc(N[C@H]2CC[C@H](O)CC2)nc1N[C@@H]1CCC[C@H](O)C1 [Example C-8, 4-((1R,3S)-3-hydroxycyclohexylamino)-2-((1r,4R)-4-hydroxycyclohexylamino) pyrimidine-5-carbonitrile] | < 0.2

same assay, conditions: one or more of the JNK1 biochemical assays; read-out: Act. Level (JNK1 IC50 activity level)

Structure (SMILES) | IC50 [µM]
CC(C)(C)Nc1nc(NC2CCCC(O)CC2)ncc1C(N)=O (stereo not drawn) [Example 250, 4-(tert-butylamino)-2-(4-hydroxycycloheptylamino)pyrimidine-5-carboxamide] | < 0.2
CC(C)Nc1nc(N[C@@H]2CCC[C@H](O)CC2)ncc1C(N)=O [Example 234, 2-((1R,4S)-4-hydroxycycloheptylamino)-4-(isopropylamino)pyrimidine-5-carboxamide] | < 0.2
NC(=O)c1cnc(N[C@H]2CC[C@H](OC3CC3)CC2)nc1NC1C2CC1C2 (stereo partly drawn) [Example 486, 4-(bicyclo[1.1.1]pentan-2-ylamino)-2-((1r,4r)-4-cyclopropoxycyclohexylamino)pyrimidine-5-carboxamide] | < 0.2
NC(=O)c1cnc(NC2CCOCC2)nc1N[C@@H]1CCC[C@H]1CO [Example 328, 4-((1R,2R)-2-(hydroxymethyl)cyclopentylamino)-2-(tetrahydro-2H-pyran-4-ylamino)pyrimidine-5-carboxamide] | < 0.2
CC1(Nc2nc(N[C@H]3CC[C@H](O)CC3)ncc2C(N)=O)CCCC1 [Example 322, 2-((1r,4r)-4-hydroxycyclohexylamino)-4-(1-methylcyclopentylamino)pyrimidine-5-carboxamide] | < 0.2
NC(=O)c1cnc(N[C@]23CC[C@@](O)(CC2)C3)nc1NC12CC(C1)C2 [Example 458, 4-(bicyclo[1.1.1]pentan-1-ylamino)-2-((1r,4r)-4-hydroxybicyclo[2.2.1]heptan-1-ylamino)pyrimidine-5-carboxamide] | < 0.2
C[C@H](Nc1nc(N[C@H]2CC[C@H](O)CC2)ncc1C(N)=O)C1CCC1 [Example 297, 4-((S)-1-cyclobutylethylamino)-2-((1r,4S)-4-hydroxycyclohexylamino)pyrimidine-5-carboxamide] | < 0.2
CC(C)CNc1ncc(C(N)=O)c(N[C@@H]2CCC[C@H](O)C2)n1 [Example 495, 4-((1R,3S)-3-hydroxycyclohexylamino)-2-(isobutylamino)pyrimidine-5-carboxamide] | < 0.2
C[C@]1(O)CCC[C@@H](Nc2nc(NC34CC(C3)C4)ncc2C(N)=O)C1 [Example 347, 2-(bicyclo[1.1.1]pentan-1-ylamino)-4-((1R,3S)-3-hydroxy-3-methylcyclohexylamino)pyrimidine-5-carboxamide] | < 0.2
CNc1nc(N[C@H]2CC[C@H](O)CC2)ncc1C(N)=O [Example 270, 2-((1r,4r)-4-hydroxycyclohexylamino)-4-(methylamino)pyrimidine-5-carboxamide] | 0.2 to 0.8
CO[C@H]1CC[C@H](Nc2ncc(C(N)=O)c(NC(C)(C)CO)n2)CC1 [Example 310, 4-(1-hydroxy-2-methylpropan-2-ylamino)-2-((1r,4r)-4-methoxycyclohexylamino)pyrimidine-5-carboxamide] | < 0.2
CC(C)(C)Nc1ncc(C(N)=O)c(N[C@@H]2CCC[C@@H]2CO)n1 [Example 365, 2-(tert-butylamino)-4-((1R,2S)-2-(hydroxymethyl)cyclopentylamino)pyrimidine-5-carboxamide] | < 0.2
CO[C@H]1CC[C@H](Nc2ncc(C(N)=O)c(N[C@H]3C[C@H](C)C3)n2)CC1 [Example 336, 2-((1r,4r)-4-methoxycyclohexylamino)-4-((1r,3r)-3-methylcyclobutylamino)pyrimidine-5-carboxamide] | < 0.2
CC(C)(C)Nc1nc(NC2COC2)ncc1C(N)=O [Example 303, 4-(tert-butylamino)-2-(oxetan-3-ylamino)pyrimidine-5-carboxamide] | 0.2 to 0.8
CO[C@H]1CC[C@H](Nc2ncc(C(N)=O)c(NC(C)(C)C(C)(C)C)n2)CC1 [Example 333, 2-((1r,4r)-4-methoxycyclohexylamino)-4-(2,3,3-trimethylbutan-2-ylamino)pyrimidine-5-carboxamide] | < 0.2
C[C@@H]1CC[C@@H](Nc2nc(NC34CC(C(F)(F)F)(C3)C4)ncc2C(N)=O)C[C@H]1O [Example 441, 4-((1R,3R,4R)-3-hydroxy-4-methylcyclohexylamino)-2-(3-(trifluoromethyl)bicyclo[1.1.1]pentan-1-ylamino)pyrimidine-5-carboxamide] | < 0.2
NC(=O)c1cnc(NC2CCCC(O)CC2)nc1NC1CCC1 (stereo not drawn) [Example 248, 4-(cyclobutylamino)-2-(4-hydroxycycloheptylamino)pyrimidine-5-carboxamide] | < 0.2
NC(=O)c1cnc(NC2CCOCC2)nc1NC1CCC1 [Example 435, 4-(cyclobutylamino)-2-(tetrahydro-2H-pyran-4-ylamino)pyrimidine-5-carboxamide] | < 0.2
CC1(C)CCC(Nc2nc(NC3CCC3)ncc2C(N)=O)CC1O (stereo not drawn) [Example 429, 2-(cyclobutylamino)-4-(3-hydroxy-4,4-dimethylcyclohexylamino)pyrimidine-5-carboxamide] | < 0.2
CC(=O)N[C@H]1CC[C@H](Nc2ncc(C(N)=O)c(NC(C)C)n2)CC1 [Example 203, 2-((1r,4r)-4-acetamidocyclohexylamino)-4-(isopropylamino)pyrimidine-5-carboxamide] | < 0.2

same assay, conditions: tested in one or more of the JNK1 biochemical assays; read-out: Act. Level (JNK1 biochemical assay IC50 activity level)

Structure (SMILES) | IC50 [µM]
CCO[C@@H]1CC[C@@H](Nc2ncc(C(N)=O)c(N[C@H]3CCC[C@@H]3O)n2)C1 [Example A-76, 2-((1R,3R)-3-ethoxycyclopentylamino)-4-((1S,2S)-2-hydroxycyclopentylamino)pyrimidine-5-carboxamide] | 0.2 to 0.8
CC(C)Nc1ncc(C(N)=O)c(N[C@H]2CC[C@@H](NC(=O)C(C)C)CC2)n1 [Example A-142, 4-((1s,4s)-4-isobutyramidocyclohexylamino)-2-(isopropylamino)pyrimidine-5-carboxamide] | 0.2 to 0.8
CC(C)Nc1nc(N[C@H]2CC[C@H](OC(F)F)CC2)ncc1C(N)=O [Example A-191, 2-((1r,4r)-4-(difluoromethoxy)cyclohexylamino)-4-(isopropylamino)pyrimidine-5-carboxamide] | < 0.2
CCO[C@H]1CC[C@H](Nc2ncc(C(N)=O)c(N[C@H]3CCC[C@@H](O)C3)n2)CC1 [Example A-59, 2-((1r,4S)-4-ethoxycyclohexylamino)-4-((1S,3R)-3-hydroxycyclohexylamino)pyrimidine-5-carboxamide] | < 0.2
